Laboratory results published in patent publication US12202835B2, “Substituted aromatic ring-linked dioxinoquinazolines and dioxinoquinolines as kinase inhibitors” (BEIJING SCITECH-MQ PHARMACEUTICALS LIMITED, priority 2018, dated 2025).

Experiments:
[1] = test system: EBC1 cells; assay: Assay for inhibiting the proliferation of EBC1 cells (CCK-8); format: cell-based; settings: Homo sapiens, EBC-1
Procedure, shortened: (§1)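 Cells seeded in 96-well plates overnight, then exposed 72 h to 9 three-fold dilutions of compound (0.25% DMSO final). Viability by CCK-8 (1-2 h at 37° C., OD 450 nm), survival normalized to untreated and cell-free blanks; IC50 by curve fitting.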

[2] = test system: MHCC97H cells; assay: Assay for inhibiting the proliferation of MHCC97H cells (CCK-8); format: cell-based; settings: Homo sapiens
Procedure, shortened: as §1

[3] = target: TRKA kinase (Homo sapiens (Human), UniProt P04629); assay: Assay of small molecular compounds for inhibiting the activity of TRKA kinase (LANCE TR-FRET); format: biochemical
Procedure, shortened: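 LANCE TR-FRET with ULight-TK peptide; compounds pre-incubated 5 min with TRKA (2× solution 2 nM), then substrate/ATP added (4× mix: 400 nM peptide, 40 μM ATP). Reaction 60 min at room temperature in dark, 1% DMSO final; stopped, detection developed 60 min, signal read.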

[4] = test system: Ba/F3-AXL cells; assay: Assay for inhibiting the proliferation of Ba/F3-AXL cells (CCK-8); format: cell-based; settings: 72 hours of incubation, medium with 100 ng/mL hGas6, CCK-8
Procedure: The values were then imported into Graphpad Prism 5 software for curve fitting, and IC50 was calculated.

[5] = test system: Ba/F3 LMNA-NTRK1 cells; assay: Assay for inhibiting the proliferation of Ba/F3 LMNA-NTRK1 cells (CCK-8); format: cell-based; settings: Mus musculus, BaF3
Procedure, shortened: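 Cells were seeded and cultured overnight, then treated with graded compound concentrations (final DMSO 0.25%) for 72 h. CCK-8 was added for 1–2 h at 37 °C and OD450 read. Survival was normalised to untreated and cell-free blank wells, and IC50 was fitted.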

Sequence of TRKA kinase (P04629 33-796): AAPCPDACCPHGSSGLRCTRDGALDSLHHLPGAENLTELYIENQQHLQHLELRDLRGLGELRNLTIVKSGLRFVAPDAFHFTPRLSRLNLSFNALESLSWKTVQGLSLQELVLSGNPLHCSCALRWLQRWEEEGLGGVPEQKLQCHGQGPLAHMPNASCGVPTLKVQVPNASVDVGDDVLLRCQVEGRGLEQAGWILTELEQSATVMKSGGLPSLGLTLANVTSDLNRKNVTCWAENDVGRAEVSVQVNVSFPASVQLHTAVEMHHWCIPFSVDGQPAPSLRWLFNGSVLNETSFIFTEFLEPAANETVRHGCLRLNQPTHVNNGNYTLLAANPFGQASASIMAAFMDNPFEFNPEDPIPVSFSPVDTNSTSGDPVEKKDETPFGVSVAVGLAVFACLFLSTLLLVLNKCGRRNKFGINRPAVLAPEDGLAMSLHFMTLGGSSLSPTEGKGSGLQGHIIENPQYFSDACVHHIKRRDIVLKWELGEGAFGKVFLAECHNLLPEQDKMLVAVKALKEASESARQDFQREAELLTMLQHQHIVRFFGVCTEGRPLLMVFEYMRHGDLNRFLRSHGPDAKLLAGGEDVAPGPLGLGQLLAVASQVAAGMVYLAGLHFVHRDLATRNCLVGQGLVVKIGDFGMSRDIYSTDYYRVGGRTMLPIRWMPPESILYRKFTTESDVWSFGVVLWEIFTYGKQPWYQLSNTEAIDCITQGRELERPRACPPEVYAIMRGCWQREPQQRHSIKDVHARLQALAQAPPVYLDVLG

SMILES | IC50 [3] [nM] | IC50 [4] [nM] | IC50 [5] [nM] | IC50 [1] [nM] | IC50 [2] [nM]
COc1cc2ncnc(Oc3ccc(NC(=O)c4c(OC)ccn(-c5ccc(F)cc5)c4=O)cc3F)c2c2c1OCCO2 [Example 2, N-(3-fluoro-4-((5-methoxy-2,3-dihydro-[1,4]dioxino[2,3-f]quinazolin-10-yl)oxy)phenyl)-1-(4-fluorophenyl)-4-methoxy-2-oxo-1,2-dihydropyridine-3-carboxamide] | < 50 | < 50 |  | 50 to 200 | 200 to 1000
Cn1cc(C(=O)Nc2ccc(Oc3ccnc4cc(OC5CCOCC5)c5c(c34)OCCO5)c(F)c2)c(=O)n(-c2ccc(F)cc2)c1=O [Example 91, N-(3-fluoro-4-((5-((tetrahydropyran-4-yl)oxy)-2,3-dihydro-[1,4]dioxino[2,3-f]quinolin-10-yl)oxy)phenyl)-3-(4-fluorophenyl)-1-methyl-2,4-dioxo-1,2,3,4-tetrahydropyrimidine-5-carboxamide] | < 50 | < 50 | < 50 |  | 
CCOc1ccn(-c2ccc(F)cc2)c(=O)c1C(=O)Nc1ccc(Oc2ccnc3cc(OCC(C)C)c4c(c23)OCCO4)c(F)c1 [Example 58, N-(4-((5-(isobutyloxy)-2,3-dihydro-[1,4]dioxino[2,3-f]quinolin-10-yl)oxy)-3-fluorophenyl)-4-ethoxy-1-(4-fluorophenyl)-2-oxo-1,2-dihydropyridine-3-carboxamide] | 50 to 500 | < 50 |  |  | 
Cn1cc(C(=O)Nc2ccc(Oc3ccnc4cc(OC5CCOC5)c5c(c34)OCCO5)c(F)c2)c(=O)n(-c2ccc(F)cc2)c1=O (centres unmarked) [Example 90, N-(3-fluoro-4-((5-((tetrahydrofuran-3-yl)oxy)-2,3-dihydro-[1,4]dioxino[2,3-f]quinolin-10-yl)oxy)phenyl)-3-(4-fluorophenyl)-1-methyl-2,4-dioxo-1,2,3,4-tetrahydropyrimidine-5-carboxamide] | < 50 | < 50 | < 50 |  | 
COc1cn(-c2ccc(F)cc2C)nc1C(=O)Nc1ccc(Oc2ncnc3cc(OCCCN4CCOCC4)c4c(c23)OCCO4)c(F)c1 [Example 11, 1-(4-fluoro-2-methylphenyl)-N-(3-fluoro-4-((5-(3-morpholinopropoxy)-2,3-dihydro-[1,4]dioxino[2,3-f]quinazolin-10-yl)oxy)phenyl)-4-methoxy-1H-pyrazole-3-carboxamide] |  |  |  | 200 to 1000 | 200 to 1000
CCOc1ccn(-c2ccc(F)cc2)c(=O)c1C(=O)Nc1ccc(Oc2ncnc3cc(OC)c4c(c23)OCCO4)c(F)c1 [Example 3, N-(3-fluoro-4-((5-methoxy-2,3-dihydro-[1,4]dioxino[2,3-f]quinazolin-10-yl)oxy)phenyl)-1-(4-fluorophenyl)-4-ethoxy-2-oxo-1,2-dihydropyridine-3-carboxamide] | < 50 |  |  | 50 to 200 | 50 to 200
COc1cc2nccc(Oc3ccc(NC(=O)c4cn(CCO)c(=O)n(-c5ccc(F)cc5)c4=O)cc3F)c2c2c1OCCO2 [Example 45, N-(3-fluoro-4-((5-methoxy-2,3-dihydro-[1,4]dioxino[2,3-f]quinolin-10-yl)oxy)phenyl)-3-(4-fluorophenyl)-1-(2-hydroxyethyl)-2,4-dioxo-1,2,3,4-tetrahydropyrimidine-5-carboxamide] | 50 to 500 | < 50 |  | 50 to 200 | 200 to 1000
CCOc1cn(-c2ccc(F)cc2C)nc1C(=O)Nc1ccc(Oc2ncnc3cc(OCCCN4CCOCC4)c4c(c23)OCCO4)c(F)c1 [Example 12, 1-(4-fluoro-2-methylphenyl)-N-(3-fluoro-4-((5-(3-morpholinopropoxy)-2,3-dihydro-[1,4]dioxino[2,3-f]quinazolin-10-yl)oxy)phenyl)-4-ethoxy-1H-pyrazole-3-carboxamide] |  |  |  | 200 to 1000 | 50 to 200
CCOc1ccn(-c2ccc(F)cc2)c(=O)c1C(=O)Nc1ccc(Oc2ccnc3cc(OCC4CC4)c4c(c23)OCCO4)c(F)c1 [Example 59, N-(4-((5-(cyclopropylmethoxy)-2,3-dihydro-[1,4]dioxino[2,3-f]quinolin-10-yl)oxy)-3-fluorophenyl)-4-ethoxy-1-(4-fluorophenyl)-2-oxo-1,2-dihydropyridine-3-carboxamide] | 50 to 500 | < 50 |  |  | 

Continued, in another order:

IC50 [3] [nM] | IC50 [4] [nM] | IC50 [5] [nM] | SMILES | IC50 [1] [nM] | IC50 [2] [nM]
50 to 500 | < 50 |  | CC(C)Oc1cc2nccc(Oc3ccc(NC(=O)c4cn(C)c(=O)n(-c5ccc(F)cc5)c4=O)cc3F)c2c2c1OCCO2 [Example 88, N-(3-fluoro-4-((5-isopropoxy-2,3-dihydro-[1,4]dioxino[2,3-f]quinolin-10-yl)oxy)phenyl)-3-(4-fluorophenyl)-1-methyl-2,4-dioxo-1,2,3,4-tetrahydropyrimidine-5-carboxamide] |  | 
< 50 | < 50 | 50 to 200 | CC(C)n1cc(C(=O)Nc2ccc(Oc3ccnc4cc(OCCCN5CCC(C)(C)CC5)c5c(c34)OCCO5)c(F)c2)c(=O)n(-c2ccc(F)cc2)c1=O [Example 92, N-(3-fluoro-4-((5-(3-(4,4-dimethylpiperidin-1-yl)propoxy)-2,3-dihydro-[1,4]dioxino[2,3-f]quinolin-10-yl)oxy)phenyl)-3-(4-fluorophenyl)-1-isopropyl-2,4-dioxo-1,2,3,4-tetrahydropyrimidine-5-carboxamide] |  | 
< 50 | < 50 | 200 to 1000 | CC(C)n1cc(C(=O)Nc2ccc(Oc3ccnc4cc(OCCCN5CCC(C)(N)CC5)c5c(c34)OCCO5)c(F)c2)c(=O)n(-c2ccc(F)cc2)c1=O [Example 93, N-(3-fluoro-4-((5-(3-(4-amino-4-methylpiperidin-1-yl)propoxy)-2,3-dihydro-[1,4]dioxino[2,3-f]quinolin-10-yl)oxy)phenyl)-3-(4-fluorophenyl)-1-isopropyl-2,4-dioxo-1,2,3,4-tetrahydropyrimidine-5-carboxamide] |  | 
50 to 500 | < 50 | < 50 | COCCOc1cc2nccc(Oc3ccc(NC(=O)c4cn(C(C)C)c(=O)n(-c5ccc(F)cc5)c4=O)cc3F)c2c2c1OCCO2 [Example 43, N-(3-fluoro-4-((5-(2-methoxyethoxy)-2,3-dihydro-[1,4]dioxino[2,3-f]quinolin-10-yl)oxy)phenyl)-3-(4-fluorophenyl)-1-isopropyl-2,4-dioxo-1,2,3,4-tetrahydropyrimidine-5-carboxamide] |  | 
< 50 | < 50 | < 50 | CC(C)n1cc(C(=O)Nc2ccc(Oc3ccnc4cc(OCCO)c5c(c34)OCCO5)c(F)c2)c(=O)n(-c2ccc(F)cc2)c1=O [Example 78, N-(3-fluoro-4-((5-(2-hydroxyethoxy)-2,3-dihydro-[1,4]dioxino[2,3-f]quinolin-10-yl)oxy)phenyl)-3-(4-fluorophenyl)-1-isopropyl-2,4-dioxo-1,2,3,4-tetrahydropyrimidine-5-carboxamide] |  | 
< 50 | < 50 | < 50 | CCOc1ccn(-c2ccc(F)cc2)c(=O)c1C(=O)Nc1ccc(Oc2ccnc3cc(OCCCN4CCCC4)c4c(c23)OCCO4)c(F)c1 [Example 52, N-(4-((5-(3-(pyrrolidin-1-yl)propoxy)-2,3-dihydro-[1,4]dioxino[2,3-f]quinolin-10-yl)oxy)-3-fluorophenyl)-4-ethoxy-1-(4-fluorophenyl)-2-oxo-1,2-dihydropyridine-3-carboxamide] |  | ≤ 50
< 50 |  | < 50 | CC(C)n1cc(C(=O)Nc2ccc(Oc3ccnc4cc(OCCCO)c5c(c34)OCCO5)c(F)c2)c(=O)n(-c2ccc(F)cc2)c1=O [Example 79, N-(3-fluoro-4-((5-(3-hydroxypropoxy)-2,3-dihydro-[1,4]dioxino[2,3-f]quinolin-10-yl)oxy)phenyl)-3-(4-fluorophenyl)-1-isopropyl-2,4-dioxo-1,2,3,4-tetrahydropyrimidine-5-carboxamide] |  | 
< 50 | < 50 | < 50 | CC(C)n1cc(C(=O)Nc2ccc(Oc3ccnc4cc(OCCCN5CCS(=O)(=O)CC5)c5c(c34)OCCO5)c(F)c2)c(=O)n(-c2ccc(F)cc2)c1=O [Example 76, N-(3-fluoro-4-((5-(3-(1,1-dioxidothiomorpholino)propoxy)-2,3-dihydro-[1,4]dioxino[2,3-f]quinolin-10-yl)oxy)phenyl)-3-(4-fluorophenyl)-1-isopropyl-2,4-dioxo-1,2,3,4-tetrahydropyrimidine-5-carboxamide] |  | 
< 50 |  | < 50 | CC(=O)N1CCN(CCCOc2cc3nccc(Oc4ccc(NC(=O)c5cn(C(C)C)c(=O)n(-c6ccc(F)cc6)c5=O)cc4F)c3c3c2OCCO3)CC1 [Example 75, N-(3-fluoro-4-((5-(3-(4-acetylpiperazin-1-yl)propoxy)-2,3-dihydro-[1,4]dioxino[2,3-f]quinolin-10-yl)oxy)phenyl)-3-(4-fluorophenyl)-1-isopropyl-2,4-dioxo-1,2,3,4-tetrahydropyrimidine-5-carboxamide] |  | 
< 50 | < 50 | < 50 | CC(C)n1cc(C(=O)Nc2ccc(Oc3ccnc4cc(OCCCN5CCCC5)c5c(c34)OCCO5)c(F)c2)c(=O)n(-c2ccc(F)cc2)c1=O [Example 77, N-(3-fluoro-4-((5-(3-(pyrrolidin-1-yl)propoxy)-2,3-dihydro-[1,4]dioxino[2,3-f]quinolin-10-yl)oxy)phenyl)-3-(4-fluorophenyl)-1-isopropyl-2,4-dioxo-1,2,3,4-tetrahydropyrimidine-5-carboxamide] |  | 
